Literature values, collected in patent US20220160758A1, “ANTIVIRAL, ANTIBACTERIAL AND/OR ANTI FUNGAL COMPOSITIONS, APPLICATIONS AND THERAPY” (AVITAS BIO CORP., priority 2020, published 2022).

Experiments:
bacteriophage PR4 = conditions: in vitro
[1] = tested on: gram-positive and gram-negative microorganisms; conditions: at the concentrations tested

CCCCCC/C=C\CCCCCCCC(=O)O [palmitoleic acid]
inhibition of viral replication (bacteriophage PR4): most effective

CCCCC/C=C\C/C=C\C/C=C\C/C=C\CCCC(=O)O [arachidonic acid]
inhibition of viral replication (bacteriophage PR4): moderately effective
growth inhibition [1]: not inhibitory

CCCCCCCC/C=C\CCCCCCCC(=O)O [oleic acid]
inhibition of viral replication (bacteriophage PR4): most effective
inactivating the virus (bacteriophage): most effective
